This note sets out measurements from ChEMBL document CHEMBL4321783, “Recent Progress in Natural-Product-Inspired Programs Aimed To Address Antibiotic Resistance and Tolerance” (J Med Chem, 2019).

≈ marks a conversion by molar mass, not a printed value. Positions of bridges follow the written chain, without caps; N, C: chain ends. Non-standard residues stand in square brackets, D forms with d. Residues, ends and D or L forms follow the SMILES beside them. *: point of attachment. Phe(3,5-F2) = N[C@@H](Cc1cc(F)cc(F)c1)C(=O)O; Pip(4S-Me) = C[C@H]1CCN[C@H](C(=O)O)C1; Heptenoyl(2E) = CCCC/C=C/C(=O)*; aThr = C[C@H](O)[C@H](N)C(=O)O

Data set [1] deals with Staphylococcus aureus. Put plainly: Antibiofilm activity against methicillin-resistant Staphylococcus aureus 1707 assessed as induction of change in gene expression 0.625 uM after 20 hrs by RNA sequencing data based analysis relative to control. In kind it is functional.
Data set [2] concerns Staphylococcus aureus. Briefly: Antibiofilm activity against methicillin-resistant Staphylococcus aureus assessed as increase in isdB expression at 0.625 uM after 4 hrs by RT-qPCR analysis relative to control. Type of data set: functional. (In qPCR the cycle at which signal appears reflects the starting amount.)
Data set [3] concerns Pseudomonas aeruginosa. Briefly: Growth inhibition of Pseudomonas aeruginosa PA14 after 24 hrs. In kind it is functional, organism-based. The settings on record: PA14, 24 h.
The subject of data set [4] is Pseudomonas aeruginosa. Briefly: Growth inhibition of Pseudomonas aeruginosa PAO1 after 24 hrs. Type of data set: functional, organism-based. The settings on record: PAO1, 24 h.
A short description of data set [5]: Drug accumulation in Escherichia coli MG1655 assessed per 10^12 CFU at 50 uM incubated for 10 mins under shaking condition by LC-MS/MS analysis. Type of data set: ADME, K-12 substr. MG1655.
Data set [6] has as its system Staphylococcus aureus. Put plainly: Antibacterial activity against Staphylococcus aureus ATCC 29213 by broth microdilution method. Type of data set: functional. (In general: In broth dilution the organism is exposed to a series of concentrations in liquid medium.)
In data set [7] the test system is Staphylococcus aureus. Put plainly: Antibacterial activity against Staphylococcus aureus NRS3 by broth microdilution method. Type of data set: functional.
In data set [8] the test system is Escherichia coli. Briefly: Antibacterial activity against Escherichia coli MG1655 by broth microdilution method. The note with it: K-12 substr. MG1655. Type of data set: functional.
In data set [9] the test system is Escherichia coli. Briefly: Antibacterial activity against Escherichia coli ELZ4017 by broth microdilution method. Type of data set: functional.
Data set [10] has as its system Escherichia coli. Put plainly: Antibacterial activity against Escherichia coli ELZ4045 by broth microdilution method. Type of data set: functional.
Data set [11] has as its system Escherichia coli. Briefly: Antibacterial activity against Escherichia coli ELZ4346 by broth microdilution method. In kind it is functional.
The subject of data set [12] is Escherichia coli. Put plainly: Antibacterial activity against Escherichia coli ELZ4081 by broth microdilution method. Type of data set: functional.
For data set [13], the system named is Escherichia coli. Briefly: Antibacterial activity against Escherichia coli ELZ4072 by broth microdilution method. Type of data set: functional.
Data set [14] concerns Escherichia coli. Briefly: Antibacterial activity against Escherichia coli ELZ4239 by broth microdilution method. Type of data set: functional.
Data set [15] concerns Escherichia coli. Briefly: Antibacterial activity against Escherichia coli BAA-2469 by broth microdilution method. Type of data set: functional.
Data set [16] concerns Klebsiella pneumoniae. Put plainly: Antibacterial activity against Klebsiella pneumoniae ATCC 27736 by broth microdilution method. In kind it is functional.
The test system of data set [17] is Klebsiella pneumoniae. Briefly: Antibacterial activity against Klebsiella pneumoniae 4-38 by broth microdilution method. Type of data set: functional.
Data set [18] deals with Klebsiella pneumoniae. Put plainly: Antibacterial activity against Klebsiella pneumoniae 6-73 by broth microdilution method. Type of data set: functional.
Data set [19] has as its system Enterobacter cloacae. Briefly: Antibacterial activity against Enterobacter cloacae ATCC 29893 by broth microdilution method. Type of data set: functional.
Data set [20] relates to Enterobacter cloacae. Put plainly: Antibacterial activity against Enterobacter cloacae 1-60 by broth microdilution method. Type of data set: functional.
In data set [21] the test system is Enterobacter cloacae. Briefly: Antibacterial activity against Enterobacter cloacae 3-46 by broth microdilution method. In kind it is functional.
Data set [22] relates to Acinetobacter baumannii. Briefly: Antibacterial activity against Acinetobacter baumannii ATCC 19606 by broth microdilution method. The settings on record: ATCC 19606 = CIP 70.34 = JCM 6841. In kind it is functional.
Data set [23] concerns Acinetobacter baumannii. Put plainly: Antibacterial activity against Acinetobacter baumannii KB304 by broth microdilution method. Type of data set: functional.
Data set [24] relates to Acinetobacter baumannii. Briefly: Antibacterial activity against Acinetobacter baumannii KB349 by broth microdilution method. Type of data set: functional.
Data set [25] concerns Acinetobacter baumannii. Put plainly: Antibacterial activity against Acinetobacter baumannii WO22 by broth microdilution method. In kind it is functional.
Data set [26] concerns Acinetobacter baumannii. Put plainly: Antibacterial activity against Acinetobacter baumannii BD335 by broth microdilution method. Type of data set: functional.
Data set [27] has as its system Acinetobacter baumannii. Put plainly: Antibacterial activity against Acinetobacter baumannii IF101 by broth microdilution method. Type of data set: functional.
Data set [28] deals with Pseudomonas aeruginosa. Put plainly: Antibacterial activity against Pseudomonas aeruginosa PAO1 by broth microdilution method. Type of data set: functional.
In data set [29] the test system is Staphylococcus aureus. Briefly: Antibacterial activity against Staphylococcus aureus by CLSI protocol based dilution method. Type of data set: functional.
The subject of data set [30] is Staphylococcus aureus. Briefly: Antibacterial activity against methicillin-resistant Staphylococcus aureus. In kind it is functional.
In data set [31] the test system is Klebsiella pneumoniae. Put plainly: Antibacterial activity against Klebsiella pneumoniae. Type of data set: functional.
The subject of data set [32] is Pseudomonas aeruginosa. Put plainly: Antibacterial activity against Pseudomonas aeruginosa. In kind it is functional.
Data set [33] deals with Staphylococcus aureus. Briefly: Antibiofilm activity against methicillin-resistant Staphylococcus aureus 2 assessed as induction of biofilm eradication incubated for 24 hrs followed by 3 times wash out with water and subsequent compound addition measured after 24 hrs. In kind it is functional.
Data set [34] concerns Staphylococcus aureus. Briefly: Antibiofilm activity against […] methicillin-resistant Staphylococcus aureus 2 assessed as induction of biofilm eradication incubated for 24 hrs followed by 3 times wash out with water and subsequent compound addition measured after 24 hrs. Type of data set: functional.

For the compound `Oc1c(Br)cc(I)c2nc3cc(Cl)c(Cl)cc3nc12`, the “fold change (FC)” value is given as “>=2” in the data set with Staphylococcus aureus [1] and 22.3 in the data set with Staphylococcus aureus [2].
Turning to `CCCCCC[C@H](CCCCC[C@@H](O)C(N)=O)OC(=O)[C@@H]1CC=CN1C(=O)c1ccccc1O`, the values for the IC50 with Pseudomonas aeruginosa [3] and in the data set on Pseudomonas aeruginosa [4] were 67 to 130 nM and 1000 nM, respectively.
Turning to `Cc1cc(=O)n(C)c2c3c4c(cc12)c(C)cc(=O)n4C(CN)CO3` (centres undefined), in [5], the Drug uptake was determined as 1114 nmol. Further, the MIC against Staphylococcus aureus [6] was in the range of 0.03 to 0.5 µg/mL (≈ 0.0922 to 1.54 µM); with Staphylococcus aureus [7] it was 0.03 to 0.5 µg/mL (≈ 0.0922 to 1.54 µM); in the data set with Escherichia coli [8], 0.5 to 16 µg/mL (≈ 1.54 to 49.2 µM); against Escherichia coli [9] it was 0.5 to 16 µg/mL (≈ 1.54 to 49.2 µM); against Escherichia coli [10] it was 0.5 to 16 µg/mL (≈ 1.54 to 49.2 µM); against Escherichia coli [11], 0.5 to 16 µg/mL (≈ 1.54 to 49.2 µM). Further, the MIC in the data set on Escherichia coli [12] lay within 0.5 to 16 µg/mL (≈ 1.54 to 49.2 µM); in the data set with Escherichia coli [13] it was 0.5 to 16 µg/mL (≈ 1.54 to 49.2 µM); with Escherichia coli [14] it was 0.5 to 16 µg/mL (≈ 1.54 to 49.2 µM); in the data set with Escherichia coli [15] it was 0.5 to 16 µg/mL (≈ 1.54 to 49.2 µM); with Klebsiella pneumoniae [16], 1 to 8 µg/mL (≈ 3.07 to 24.6 µM); against Klebsiella pneumoniae [17] it was 1 to 8 µg/mL (≈ 3.07 to 24.6 µM). The MIC against Klebsiella pneumoniae [18] was in the range of 1 to 8 µg/mL (≈ 3.07 to 24.6 µM); in the data set with Enterobacter cloacae [19], 0.5 to 4 µg/mL (≈ 1.54 to 12.3 µM); in the data set on Enterobacter cloacae [20], 0.5 to 4 µg/mL (≈ 1.54 to 12.3 µM); in the data set on Enterobacter cloacae [21] it was 0.5 to 4 µg/mL (≈ 1.54 to 12.3 µM); in the data set on Acinetobacter baumannii [22], 2 to 16 µg/mL (≈ 6.15 to 49.2 µM); against Acinetobacter baumannii [23], 2 to 16 µg/mL (≈ 6.15 to 49.2 µM). The MIC is 2 to 16 µg/mL (≈ 6.15 to 49.2 µM) with Acinetobacter baumannii [24]; 2 to 16 µg/mL (≈ 6.15 to 49.2 µM) in the data set with Acinetobacter baumannii [25]; 2 to 16 µg/mL (≈ 6.15 to 49.2 µM) against Acinetobacter baumannii [26]; 2 to 16 µg/mL (≈ 6.15 to 49.2 µM) in the data set on Acinetobacter baumannii [27]; 16 µg/mL (≈ 49.2 µM) in the data set with Pseudomonas aeruginosa [28].
In the case of `CCCC/C=C/C(=O)N[C@@H](Cc1cc(F)cc(F)c1)C(=O)N[C@@H]1C(=O)N2CCC[C@H]2C(=O)N2CC[C@H](C)C[C@H]2C(=O)N[C@@H](C)C(=O)N2CCC[C@H]2C(=O)O[C@H]1C` ({Heptenoyl(2E)}-[Phe(3,5-F2)][aThr]P[Pip(4S-Me)]AP; ester 2-C), the minimum inhibitory concentration (MIC) in the data set with Staphylococcus aureus [29] turned out to be 0.0306 µM (≈ 0.024 µg/mL).
Consider `CN(C)[C@@H]1C(O)=C(C(N)=O)C(=O)[C@@]2(O)C(O)=C3C(=O)c4c(O)c(NC(=O)CN5CCCC5)cc(F)c4C[C@H]3C[C@@H]12` [ERAVACYCLINE], for which the minimum inhibitory concentration (MIC) in the data set with Staphylococcus aureus [30] was in the range of 0.015 to 4 µg/mL (≈ 0.0269 to 7.16 µM); against Klebsiella pneumoniae [31] it was 0.03 to 16 µg/mL (≈ 0.0537 to 28.6 µM); in the data set on Pseudomonas aeruginosa [32] it was 0.06 to 64 µg/mL.
`CN[C@H](CC(C)C)C(=O)N[C@H]1C(=O)N[C@@H](CC(N)=O)C(=O)N[C@H]2C(=O)N[C@H]3C(=O)N[C@H](C(=O)N[C@H](C(=O)O)c4cc(O)cc(O)c4-c4cc3ccc4O)[C@H](O)c3ccc(c(Cl)c3)Oc3cc2cc(c3O[C@@H]2O[C@H](CO)[C@@H](O)[C@H](O)[C@H]2O[C@H]2C[C@](C)(N)[C@H](O)[C@H](C)O2)Oc2ccc(cc2Cl)[C@H]1O` [VANCOMYCIN]: the MBEC in the data set on Staphylococcus aureus [33] was more than 2000 µM; in the data set on Staphylococcus aureus [34], 4 µM.

In general, IC50 refers to the midpoint of a concentration-inhibition curve. The low end stands for greater potency, the high end for weaker potency. In general, MIC refers to the smallest concentration in the dilution series that meets the test's criterion for growth inhibition. Low readings indicate a more susceptible organism, high ones a less susceptible organism.
